Results reported in PubChem BioAssay AID248 (DTP/NCI, 2004).
Values joined by “and” are separate entries in the source; they are usually repeats but may differ in a detail not shown here. Identical values can stand only once. Inconclusive results and toxic doses are left out. No stated cut-off is given here; in the data, active means T/C of 150% or more; inactive means T/C below 125%.

Test system: L1210 leukemia ip in BDF1 mice, survival T/C
Assay: NCI In Vivo Anticancer Drug Screen. Data for tumor model L1210 Leukemia (intraperitoneal) in B6D2F1 (BDF1) mice
Conditions: endpoint: mean survival time, higher = longer survival
Outline: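 Tumor was transplanted into mice, which were then dosed with test compound or vehicle alone. Survival was recorded for each group, and the treated figure was expressed relative to the control figure.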

[1] = dose: 25.0 mg/kg/injection, schedule: Q01DX009 (ip), vehicle: saline with Tween-80
[2] = dose: 50.0 mg/kg/injection, schedule: Q04DX003 (ip), vehicle: saline with Tween-80
[3] = dose: 100.0 mg/kg/injection, schedule: Q01DX009 (ip), vehicle: saline with Tween-80
[4] = dose: 100.0 mg/kg/injection, schedule: Q04DX003 (ip), vehicle: saline with Tween-80
[5] = dose: 100.0 mg/kg/injection, schedule: Q04DX003 (ip), vehicle: saline
[6] = dose: 200.0 mg/kg/injection, schedule: Q04DX003 (ip), vehicle: saline
[7] = dose: 400.0 mg/kg/injection, schedule: Q04DX003 (ip), vehicle: saline
[8] = dose: 100.0 mg/kg/injection, schedule: Q04DX003 (ip), vehicle: Klucel (hydroxypropylcellulose) (HPC)
[9] = dose: 200.0 mg/kg/injection, schedule: Q04DX003 (ip), vehicle: Klucel (hydroxypropylcellulose) (HPC)
[10] = dose: 400.0 mg/kg/injection, schedule: Q04DX003 (ip), vehicle: Klucel (hydroxypropylcellulose) (HPC)
[11] = dose: 100.0 mg/kg/injection, schedule: Q01DX009 (ip), vehicle: Klucel (hydroxypropylcellulose) (HPC)
[12] = dose: 200.0 mg/kg/injection, schedule: Q01DX009 (ip), vehicle: Klucel (hydroxypropylcellulose) (HPC)
[13] = dose: 400.0 mg/kg/injection, schedule: Q01DX009 (ip), vehicle: Klucel (hydroxypropylcellulose) (HPC)
[14] = dose: 200.0 mg/kg/injection, schedule: Q01DX009 (ip), vehicle: saline with Tween-80

Measured: T/C

O=P(Oc1ccccc1)(N1CCCCC1)N1CCCCC1
inactive: dose: 25.0 mg/kg/injection, schedule: Q01DX001 (ip), vehicle: other 96 % of control | dose: 25.0 mg/kg/injection, schedule: Q01DX009 (ip), vehicle: carboxymethylcellulose (CMC) 97 % of control and 101 % of control | dose: 25.0 mg/kg/injection, schedule: Q04DX003 (ip), vehicle: other 97 % of control | dose: 50.0 mg/kg/injection, schedule: Q01DX001 (ip), vehicle: other 91 % of control | dose: 50.0 mg/kg/injection, schedule: Q04DX003 (ip), vehicle: other 108 % of control | dose: 100.0 mg/kg/injection, schedule: Q01DX001 (ip), vehicle: other 106 % of control | dose: 100.0 mg/kg/injection, schedule: Q04DX002 (ip), vehicle: carboxymethylcellulose (CMC) 95 % of control and 100 % of control | dose: 100.0 mg/kg/injection, schedule: Q04DX003 (ip), vehicle: other 93 % of control | dose: 200.0 mg/kg/injection, schedule: Q04DX002 (ip), vehicle: carboxymethylcellulose (CMC) 104 % of control and 106 % of control | dose: 200.0 mg/kg/injection, schedule: Q04DX003 (ip), vehicle: carboxymethylcellulose (CMC) 92 % of control

COC(=O)c1ccc(CBr)cc1
inactive: [1] 97 % of control | dose: 50.0 mg/kg/injection, schedule: Q01DX009 (ip), vehicle: saline with Tween-80 90 % of control | [2] 97 % of control | [3] 98 % of control | [4] 96 % of control

OCCCCCCCCCCCO
inactive: [5] 100 % of control | [6] 93 % of control | [7] 93 % of control

CC(C)=NOC(=O)NCCCl
inactive: [8] 103 % of control | [9] 101 % of control | [10] 97 % of control

O=C1OC(c2ccc([N+](=O)[O-])cc2)Sc2ccccc21 (centres undefined)
inactive: dose: 100.0 mg/kg/injection, schedule: Q01DX009 (ip), vehicle: saline 98 % of control | [5] 106 % of control | dose: 200.0 mg/kg/injection, schedule: Q01DX009 (ip), vehicle: saline 94 % of control | [6] 108 % of control | dose: 400.0 mg/kg/injection, schedule: Q01DX009 (ip), vehicle: saline 91 % of control | [7] 97 % of control

Cc1ccc(NC(=O)NCC(=O)O)cc1
inactive: dose: 100.0 mg/kg/injection, schedule: Q01DX001 (ip), vehicle: carboxymethylcellulose (CMC) 101 % of control | dose: 200.0 mg/kg/injection, schedule: Q01DX001 (ip), vehicle: carboxymethylcellulose (CMC) 97 % of control | dose: 400.0 mg/kg/injection, schedule: Q01DX001 (ip), vehicle: carboxymethylcellulose (CMC) 109 % of control

CCCCCCCCCCCC1=NCCN1
inactive: dose: 6.25 mg/kg/injection, schedule: Q01DX009 (ip), vehicle: saline 91 % of control | dose: 12.5 mg/kg/injection, schedule: Q01DX009 (ip), vehicle: saline 91 % of control | dose: 12.5 mg/kg/injection, schedule: Q04DX003 (ip), vehicle: saline 89 % of control | [1] 93 % of control | dose: 25.0 mg/kg/injection, schedule: Q01DX009 (ip), vehicle: saline 93 % of control | dose: 25.0 mg/kg/injection, schedule: Q04DX003 (ip), vehicle: saline with Tween-80 97 % of control | dose: 25.0 mg/kg/injection, schedule: Q04DX003 (ip), vehicle: saline 94 % of control | dose: 50.0 mg/kg/injection, schedule: Q01DX009 (ip), vehicle: saline 91 % of control | [2] 97 % of control | dose: 50.0 mg/kg/injection, schedule: Q04DX003 (ip), vehicle: saline 94 % of control | [11] 100 % of control | [4] 100 % of control | [12] 96 % of control | [13] 88 % of control

O=C(Nc1ccc2ccccc2c1)c1ccc(Cl)c(Cl)c1
inactive: [11] 95 % of control | [12] 103 % of control | [13] 103 % of control

CC(C)(CBr)C(=O)O
inactive: dose: 100.0 mg/kg/injection, schedule: Q01DX001 (ip), vehicle: saline 95 % of control | dose: 200.0 mg/kg/injection, schedule: Q01DX001 (ip), vehicle: saline 95 % of control | dose: 400.0 mg/kg/injection, schedule: Q01DX001 (ip), vehicle: saline 100 % of control

CN(C)N=Nc1ccc(C(=O)N/N=C/c2ccc(I)cc2)cc1
inactive: dose: 75.0 mg/kg/injection, schedule: Q04DX003 (ip), vehicle: Klucel (hydroxypropylcellulose) (HPC) 101 % of control | dose: 150.0 mg/kg/injection, schedule: Q04DX003 (ip), vehicle: Klucel (hydroxypropylcellulose) (HPC) 97 % of control | dose: 300.0 mg/kg/injection, schedule: Q04DX003 (ip), vehicle: Klucel (hydroxypropylcellulose) (HPC) 89 % of control

O=C(Nc1ccc(C2=NCCN2)cc1)c1cccc2c(C(=O)Nc3ccc(C4=NCCN4)cc3)cccc12
inactive: dose: 9.7 mg/kg/injection, schedule: Q01DX Z (ip), vehicle: carboxymethylcellulose (CMC) 94 % of control | dose: 14.6 mg/kg/injection, schedule: Q01DX Z (ip), vehicle: carboxymethylcellulose (CMC) 107 % of control | dose: 22.0 mg/kg/injection, schedule: Q01DX Z (ip), vehicle: carboxymethylcellulose (CMC) 122 % of control | dose: 33.0 mg/kg/injection, schedule: Q01DX Z (ip), vehicle: carboxymethylcellulose (CMC) 124 % of control
active: dose: 30.0 mg/kg/injection, schedule: Q01DX Z (ip), vehicle: carboxymethylcellulose (CMC) 156 % of control | dose: 49.0 mg/kg/injection, schedule: Q01DX Z (ip), vehicle: carboxymethylcellulose (CMC) 155 % of control | dose: 60.0 mg/kg/injection, schedule: Q01DX Z (ip), vehicle: carboxymethylcellulose (CMC) 204 % of control | dose: 74.0 mg/kg/injection, schedule: Q01DX Z (ip), vehicle: carboxymethylcellulose (CMC) 155 % of control | dose: 111.0 mg/kg/injection, schedule: Q01DX Z (ip), vehicle: carboxymethylcellulose (CMC) 176 % of control | dose: 120.0 mg/kg/injection, schedule: Q01DX Z (ip), vehicle: carboxymethylcellulose (CMC) 175 % of control

Cc1oc2ccc(O)c(N=Nc3ccc(Cl)cc3)c2c1C
inactive: [8] 100 % of control | [9] 90 % of control | [10] 95 % of control

Nc1ccc(CCc2nc(N)nc(N)c2-c2ccc(Cl)cc2)cc1
inactive: [8] 106 % of control | [9] 104 % of control | [10] 101 % of control

O=C(O)CC(NC(=O)COc1ccc(F)cc1)C(=O)O (centres undefined)
inactive: dose: 100.0 mg/kg/injection, schedule: Q04DX002 (ip), vehicle: Klucel (hydroxypropylcellulose) (HPC) 89 % of control | dose: 200.0 mg/kg/injection, schedule: Q04DX002 (ip), vehicle: Klucel (hydroxypropylcellulose) (HPC) 89 % of control | dose: 400.0 mg/kg/injection, schedule: Q04DX002 (ip), vehicle: Klucel (hydroxypropylcellulose) (HPC) 96 % of control

Cc1ccc2nc(-c3ccc(N)cc3)sc2c1
inactive: [3] 96 % of control | [14] 91 % of control

O=C(O)Cc1c(-c2ccccn2)[nH]c2ccccc12
inactive: dose: 75.0 mg/kg/injection, schedule: Q01DX001 (ip), vehicle: acetone 103 % of control | dose: 150.0 mg/kg/injection, schedule: Q01DX001 (ip), vehicle: acetone 102 % of control | dose: 300.0 mg/kg/injection, schedule: Q01DX001 (ip), vehicle: acetone 94 % of control

Cc1ccc(S(=O)(=O)OC23CCC(C)(CC2)C(=O)C3)cc1
inactive: dose: 100.0 mg/kg/injection, schedule: Q04DX002 (ip), vehicle: saline 91 % of control | dose: 200.0 mg/kg/injection, schedule: Q04DX002 (ip), vehicle: saline 102 % of control | dose: 400.0 mg/kg/injection, schedule: Q04DX002 (ip), vehicle: saline 91 % of control

CC1=C2C(=C(CBr)OS1(=O)=O)C(=O)c1ccccc12
inactive: [3] 92 % of control | [4] 96 % of control | [14] 92 % of control | dose: 200.0 mg/kg/injection, schedule: Q04DX003 (ip), vehicle: saline with Tween-80 103 % of control | dose: 400.0 mg/kg/injection, schedule: Q01DX009 (ip), vehicle: saline with Tween-80 95 % of control | dose: 400.0 mg/kg/injection, schedule: Q04DX003 (ip), vehicle: saline with Tween-80 94 % of control

Cc1ccc(C(C)C)cc1NC(=O)c1c(Cl)c(Cl)c(Cl)c(Cl)c1C(=O)O
inactive: dose: 25.0 mg/kg/injection, schedule: Q01DX009 (ip), vehicle: Klucel (hydroxypropylcellulose) (HPC) 108 % of control | dose: 50.0 mg/kg/injection, schedule: Q01DX009 (ip), vehicle: Klucel (hydroxypropylcellulose) (HPC) 91 % of control | [11] 103 % of control and 90 % of control
